Reference: patent publication US10221426B2, “Constitutively active PYR/PYL receptor proteins for improving plant stress tolerance” (The Regents of the University of California, priority 2009, dated 2019)

Test system: Arabidopsis seeds
Assay: Seed germination inhibition
Type: in vivo
Details: for amount required to ensure 100% inhibition of germination: scored 3 days post-imbibition, dose curve analyses
Procedure: FIG. 1. Pyrabactin is a seed selective ABA agonist. (A) Structures of molecules described in this study. (B) Pyrabactin activity is suppressed by abi1-1. Seeds of the genotype shown at top were imbibed on media containing 25 μM pyrabactin and scored for germination 4 days after stratification. Shown at bottom are IC50 values for pyrabactin's germination effect on the genotypes characterized. (C) Microarray comparison of pyrabactin and ABA treatments in seeds. The Y-axis plots the log2 transformed value for a probe's response to 25 μM pyrabactin (relative to untreated control) and the X-axis a probe's response to 1 μM ABA. […] (D) Microarray comparison of cycloheximide and ABA responses in seeds. […] (E) Microarray comparison of pyrabactin and ABA responses in seedlings. Seven-day old seedlings were transferred to 10 μM ABA or 50 μM pyrabactin containing plates for 24 hours and then mRNA samples profiled. Inset in each scatter plot is the Pearson correlation coefficient for each comparison. Detailed microarray methods are described in the Examples section.
FIG. 2. PYR1 encodes an ABA responsive START-domain protein. (A) Pyr1 alleles. Shown are the allele names, strain names (in parentheses) and amino acid changes caused by the Pyr1 mutant alleles identified by screening for pyrabactin resistant mutations. (B) Pictographic representation of Pyr1 and Pyl1-Pyl4 expression values housed in public microarray databases. The heatmap shown at top right is for the first upper three panels and the bottom heatmap for the guard cell data. Plots were made using the eFP browser (D. Winter et al., PLoS ONE 2, e718 (2007)). (C) 35S::GFP-PYR1 complements pyr1-1. Seeds of the genotypes shown were stratified 4 days on 25 μM pyrabactin and then germinated at RT, 90% RH for 3 days in darkness. […] (D) Pyr/Pyls are required for normal ABA-induced gene expression in seedlings. Shown are qRT-PCR results for the ABA-responsive gene RD29. L, Ler; C, Col; and Q, quadruple mutant. (E) Pyr/Pyl genes are required for normal ABA-induced stress-induced gene expression in seedlings. Shown are qRT-PCR results for two ABA-responsive taqman probes, as described in the Examples section. L=Ler, C=Col, Q=quadruple mutant.
As part of an earlier effort, we identified a germination inhibitor named pyrabactin (Y. Zhao et al., Nat Chem Biol 3, 716 (2007)). […] To test this hypothesis, we examined the pyrabactin sensitivity of mutant lines with altered ABA signaling, biosynthesis or gibberellic acid (GA) perception.
We next performed microarray experiments to evaluate the similarity of the transcriptional responses induced by ABA and pyrabactin treatments. For microarray, tissue was prepared and RNA extracted from Columbia wild type seeds sown on 0.5×MS media (˜2500 seeds per 150 mm plate) containing either 1 μM ABA, 25 μM pyrabactin, 25 μM 2,4-Dinitrophenol (DNP), 1 μM cycloheximide, 2 μM methotrexate or 1% DMSO control plates (all chemicals are dissolved in DMSO). The concentrations utilized for these experiments were normalized for germination inhibition activity by dose curve analyses, i.e. the amount of both compounds required to ensure 100% inhibition of germination when scored 3 days post-imbibition. ABA (±stereoisomers), DNP, cycloheximide and methotrexate were purchased from Sigma Aldrich. Seeds were stratified for 4 days and then incubated in the dark at room temperature for 24 hours. […]

Structure (SMILES) | amount required to ensure 100% inhibition of germination | effect on germination (in vivo) | germination of Columbia wild type seeds (stratified 4 days on 25 μM pyrabactin, germinated at RT, 90% RH for 3 days in darkness)
CC1=CC(=O)CC(C)(C)[C@@]1(O)/C=C/C(C)=C\C(=O)O [ABA, Abscisic acid] | 1 µM |  | 
O=S(=O)(NCc1ccccn1)c1ccc(Br)c2ccccc12 [pyrabactin] | 25 µM | inhibits germination | unable to germinate
